Results on 36 compounds are retold here after patent US7141560B2, “Alanine 2,6-dialkoxyphenyl ester derivatives as hypnotics” (Akzo Nobel N.V., priority 2001, dated 2006).

The first experiment has as its system mice. As to the kind of experiment: Hypnotic activity: loss of righting reflex after intravenous injection in mice. It counts as in vivo. The note with it: Mus musculus, intravenous injection over 10 seconds, dose causing loss of righting reflex for minimum 30 seconds in 50% of treated mice, read-out: HD50 (hypnotic dose50). The method, then:
The hypnotic potency of the alanine 2,6-dialkoxyphenyl ester derivatives of the invention was determined upon their intravenous administration in mice. The dose required to cause a loss of righting reflex for a minimum period of 30 seconds in 50% of treated mice after intravenous injection over 10 seconds was determined. This dose is termed the HD50 (hypnotic dose50) and is expressed in μmol.kg^−1. These in vivo experiments were carried out as described in detail by Anderson et al., J. Med. Chem. 1997, 40, 1668–1681.
For the compound `CCOCCC(C(=O)Oc1c(OC)cccc1OC)N1CCCCCC1` (stereo not drawn) [Example 10q, 4-Ethoxy-2-[1-hexahydroazepinyl]butyric acid, 2,6-dimethoxyphenyl ester], the ED50 is 25 µmol/kg.

In the case of `COCCC(C(=O)Oc1c(OC)cccc1OC)N1CCCCC1` (stereo not drawn) [Example 10f, 4-Methoxy-2-[1-piperidinyl]butyric acid, 2,6-dimethoxyphenyl ester], the ED50 turned out to be 22 µmol/kg. Still for that read-out and setting: under `COc1cccc(OC)c1OC(=O)C(CN1CCOCC1)N1CCCCC1` (stereo not drawn) [Example 19g, 3-(4-Morpholinyl)-2-(1-piperidinyl)propanoic acid, 2,6-dimethoxyphenyl ester] stands 15 µmol/kg; under `COC[C@H](C(=O)Oc1c(OC)cccc1OC)N1CCCOCC1` [Example 52a, 2R-[4-(Hexahydro-1-oxazepinyl)]-3-methoxypropionic acid, 2,6-dimethoxyphenyl ester], 16 µmol/kg; under `CCOCCC(C(=O)Oc1c(OC)cc(C)cc1OC)N1CCCCCC1` (stereo not drawn) [Example 10u, 4-Ethoxy-2-[1-hexahydroazepinyl]butyric acid, 2,6-dimethoxy-4-methylphenyl ester], 17 µmol/kg. The same measure, in the same setting: under `COCCC(C(=O)Oc1c(OC)cccc1OC)N1CCOCC1` (stereo not drawn) [Example 10b, 4-Methoxy-2-[4-morpholinyl]butyric acid, 2,6-dimethoxyphenyl ester] stands 38 µmol/kg; under `COc1cccc(OC)c1OC(=O)C(CN1CCSCC1)N1CCOCC1` (stereo not drawn) [Example 19i, 2-(4-Morpholinyl)-3-(N-thiomorpholinyl)propanoic acid, 2,6-dimethoxyphenyl ester], 19 µmol/kg.

Staying with this experiment, now noted: intravenous injection over 10 seconds, dose causing loss of righting reflex for minimum 30 seconds in 50% of treated mice.
On to `COCCN(CCOC)C(CCSC)C(=O)Oc1c(OC)cc(C)cc1OC` (stereo not drawn) [Example 39c, Butanoic acid, 2-[N-bis(2-methoxyethyl)amino]-4-(methylthio), 1-(2,6-dimethoxy-4-methylphenyl)ester], for which the “HD50 (hypnotic dose50)” value is 23 µmol/kg.

As for `CCOCCC(C(=O)Oc1c(OC)cc(C)cc1OC)N1CCCOCC1` (stereo not drawn) [Example 10w, 4-Ethoxy-2-[4-(hexahydro-1-oxazepinyl)]butyric acid, 2,6-dimethoxy-4-methylphenyl ester], the “HD50 (hypnotic dose50)” value worked out at 26 µmol/kg. Regarding `COC(=O)CCC(C(=O)Oc1c(OC)cccc1OC)N1CCCCCC1.Cl` (stereo not drawn) [Example 47b, Pentanedioic acid, 2-(1-hexahydroazepinyl)-, 1-(2,6-dimethoxyphenyl)ester, 5-methyl ester hydrochloride (1:1) salt], the “HD50 (hypnotic dose50)” value is 36 µmol/kg. The same measure, in the same setting: under `COc1cccc(OC)c1OC(=O)C(CCSC)N1CCCC1` (stereo not drawn) [Example 40b, Butanoic acid, 4-(methylthio)-2-(1-pyrrolidinyl)-, 1-(2,6-dimethoxyphenyl)ester] stands 40 µmol/kg; under `COc1cccc(OC)c1OC(=O)C(CCSC)N1CCCCC1` (stereo not drawn) [Example 40a, Butanoic acid, 4-(methylthio)-2-(1-piperidinyl)-, 1-(2,6-dimethoxyphenyl)ester], under 26 µmol/kg. For `CC[C@@H]1CN(C(CN2CCOCC2)C(=O)Oc2c(OC)cccc2OC)CCO1` (stereo partly drawn) [Example 19e, 2-[(R)-4-(2-Ethylmorpholinyl)]-3-(4-morpholinyl)propanoic acid, 2,6-dimethoxyphenyl ester], the “HD50 (hypnotic dose50)” value stood at 27 µmol/kg. Same read-out and setting: under `COc1cc(C)cc(OC)c1OC(=O)C(CC(=O)N1CCCCC1)N1CCCCC1` (stereo not drawn) [Example 34a, Butanedioic, 4-(1-piperidinyl)-4-oxo-, 2-(1-piperidinyl)-, 1-(2,6-dimethoxy-4-methylphenyl)ester] stands 38 µmol/kg; under `COc1cccc(OC)c1OC(=O)C(CN1CC=CCC1)N1CCSCC1` (stereo not drawn) [Example 19k, 3-(1,2,3,6-Tetrahydropyridinyl)-2-(N-thiomorpholinyl)propanoic acid, 2,6-dimethoxyphenyl ester], 15 µmol/kg.

With `COc1cccc(OC)c1OC(=O)C(CN1CCOCC1)N1CCSC(C)(C)C1` (stereo not drawn) [Example 19c, 2-[N-(2,2-Dimethylthiomorpholinyl)]-3-(4-morpholinyl)propanoic acid, 2,6-dimethoxyphenyl ester], the “HD50 (hypnotic dose50)” value is 28 µmol/kg. Take `COCCN(CCOC)C(CC(=O)OC)C(=O)Oc1c(OC)cc(C)cc1OC` (stereo not drawn) [Example 24b, Butanedioic, 2-[N-bis(2-methoxyethyl)amino]-, 1-(2,6-dimethoxy-4-methylphenyl)ester, 4-methyl ester]: the “HD50 (hypnotic dose50)” value was 48 µmol/kg. Same read-out and setting: under `COc1cccc(OC)c1OC(=O)C(CN1CCc2ccccc2C1)N1CCOCC1` (stereo not drawn) [Example 19j, 2-(4-Morpholinyl)-3-(1,2,3,4-tetrahydroisoquinoline)propanoic acid, 2,6-dimethoxyphenyl ester] stands 21 µmol/kg. Same read-out and setting: under `COc1cc(C)cc(OC)c1OC(=O)C(CCSC)N1CCCC1` (stereo not drawn) [Example 39b, Butanoic acid, 4-(methylthio)-2-(1-pyrrolidinyl)-, 1-(2,6-dimethoxy-4-methylphenyl)ester] stands 31 µmol/kg. On the same count and under the same terms, under `COCCCN(CCCOC)C(COC)C(=O)Oc1c(OC)cc(C)cc1OC` (stereo not drawn) [Example 3p, 2-[N-Bis(3-methoxypropyl)amino]-3-methoxypropionic acid, 2,6-dimethoxy-4-methylphenyl ester] stands 46 µmol/kg; under `CCOCCN(CCOCC)C(CCOC)C(=O)Oc1c(OC)cc(C)cc1OC` (stereo not drawn) [Example 10m, 2-[N-(Bis(2-ethoxyethyl)amino)]-4-methoxybutyric acid, 2,6-dimethoxy-4-methylphenyl ester], 25 µmol/kg.

In the case of `COc1cccc(OC)c1OC(=O)C(CC(=O)N1CCCC1)N1CCCCCC1` (stereo not drawn) [Example 36, Butanedioic, 2-(1-hexahydroazepinyl)-4-oxo-4-(1-pyrrolidinyl)-, 1-(2,6-dimethoxyphenyl)ester], the “HD50 (hypnotic dose50)” value stood at 34 µmol/kg. Still for that read-out and setting: under `COC(=O)CC(C(=O)Oc1c(OC)cccc1OC)N1CCCCCC1` (stereo not drawn) [Example 30a, Butanedioic, 2-(1-hexahydroazepinyl)-, 1-(2,6-dimethoxyphenyl)ester, 4-methyl ester] stands 23 µmol/kg; under `COc1cccc(OC)c1OC(=O)C(CN1CCOCC1)N1CCO[C@H](C)C1` (stereo partly drawn) [Example 19d, 2-[(R)-4-(2-Methylmorpholinyl)]-3-(4-morpholinyl)propanoic acid, 2,6-dimethoxyphenyl ester], 27 µmol/kg; under `COc1cccc(OC)c1OC(=O)C(CN1CCOC(C)(C)C1)N1CCOC(C)(C)C1` (stereo not drawn) [Example 18b, 2,3-Di-[4-(2,2-dimethylmorpholinyl)]propanoic acid, 2,6-dimethoxyphenyl ester], 31 µmol/kg. Still for that read-out and setting: under `COC(=O)CCC(C(=O)Oc1c(OC)cccc1OC)N1CCCCC1.Cl` (stereo not drawn) [Example 47a, Pentanedioic acid, 2-(1-piperidinyl)-, 1-(2,6-dimethoxyphenyl)ester, 5-methyl ester hydrochloride (1:1) salt] stands 50 µmol/kg; under `CCOc1cccc(OCC)c1OC(=O)C(CN1CCOCC1)N1CCOCC1` (stereo not drawn) [Example 20b, Propanoic acid, 2,3-di(4-morpholinyl), 2,6-diethoxyphenyl ester], 24 µmol/kg; under `COc1cccc(OC)c1OC(=O)C(CC(=O)N1CCCCC1)N1CCCCC1` (stereo not drawn) [Example 34b, Butanedioic, 4-(1-piperidinyl)-4-oxo-, 2-(1-piperidinyl)-1-(2,6-dimethoxyphenyl)ester], 39 µmol/kg. On the same count and under the same terms, under `COc1cccc(OC)c1OC(=O)C(CCSC)N1CCCCCCC1` (stereo not drawn) [Example 40d, Butanoic acid, 2-(1-hexahydroazocinyl)-4-(methylthio), 1-(2,6-dimethoxyphenyl)ester] stands 35 µmol/kg; under `CCN(CC)C(=O)CC(C(=O)Oc1c(OC)cc(C)cc1OC)N1CCOCC1` (stereo not drawn) [Example 32a, Butanedioic, 4-(diethylamino)-4-oxo-, 2-(4-morpholinyl)-, 1-(2,6-dimethoxy4-methylphenyl)ester], 38 µmol/kg; under `COC(=O)CC(C(=O)Oc1c(OC)cc(C)cc1OC)N1CCCCCC1` (stereo not drawn) [Example 30b, Butanedioic, 2-(1-hexahydroazepinyl)-, 1-(2,6-dimethoxy-4-methyl-phenyl)ester, 4-methyl ester], 26 µmol/kg.

“2-[N-(Bis(2-methoxyethyl)amino)]-4-ethoxybutyric acid, 2,6-dimethoxy-4-methylphenyl ester [Example 10v]”: the “HD50 (hypnotic dose50)” value stood at 41 µmol/kg. Same read-out and setting: under `COCCN(CCOC)C(COC)C(=O)Oc1c(OC)cc(C)cc1OC` (stereo not drawn) [Example 51c, (ξ)-2-[N-Bis(2-methoxyethyl)amino]-3-methoxypropionic acid, 2,6-dimethoxy-4-methylphenyl ester] stands 24 µmol/kg; under `COCCC(C(=O)Oc1c(OC)cccc1OC)N1CCCOCC1` (stereo not drawn) [Example 51b, (ξ)-2-[4-(Hexahydro-1-oxazepinyl)]-4-methoxybutyric acid,2,6-dimethoxyphenyl ester], 30 µmol/kg. Still for that read-out and setting: under `COCC(C(=O)Oc1c(OC)cccc1OC)N1CCSCC1` (stereo not drawn) [Example 3c, 3-Methoxy-2-[N-thiomorpholinyl]propionic acid, 2 ,6-dimethoxyphenyl ester] stands 21 µmol/kg; under `COCCN(CCOC)C(CC(=O)OC)C(=O)Oc1c(OC)cccc1OC` (stereo not drawn) [Example 24a, Butanedioic, 2-[N-bis(2-methoxyethyl)amino]-, 1-(2,6-dimethoxyphenyl)ester, 4-methyl ester], 48 µmol/kg.
